Paper PMC3626661, “Functional Specificity of Sex Pheromone Receptors in the Cotton Bollworm Helicoverpa armigera” (PLoS ONE, 2013)
pEC50: −log10 of the molar value.

Tests used:
Experiment in all cases: two-electrode voltage clamp in Xenopus oocytes, dose-response
Assay type in all cases: cell-based
HarmOR6 = biological target: T1, HarmOR6 (Helicoverpa armigera, UniProt R4JSE3)
T1 construct: gene OR6; full-length ORF; with HarmOrco (HarmOR2)
T1 sequence (R4JSE3 1-425): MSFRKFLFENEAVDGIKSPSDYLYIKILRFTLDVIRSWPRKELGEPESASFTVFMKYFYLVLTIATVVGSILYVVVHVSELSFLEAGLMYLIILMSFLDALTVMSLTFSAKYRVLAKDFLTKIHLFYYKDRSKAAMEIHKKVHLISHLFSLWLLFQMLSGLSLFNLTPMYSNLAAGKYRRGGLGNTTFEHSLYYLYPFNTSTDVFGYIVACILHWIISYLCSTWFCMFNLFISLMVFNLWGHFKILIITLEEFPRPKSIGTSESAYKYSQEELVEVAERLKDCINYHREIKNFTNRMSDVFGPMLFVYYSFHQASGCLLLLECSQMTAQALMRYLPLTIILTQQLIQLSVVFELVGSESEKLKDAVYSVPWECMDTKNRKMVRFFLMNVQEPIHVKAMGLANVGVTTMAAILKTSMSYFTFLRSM
T1 sequence (A0A075TD45 1-473 partner): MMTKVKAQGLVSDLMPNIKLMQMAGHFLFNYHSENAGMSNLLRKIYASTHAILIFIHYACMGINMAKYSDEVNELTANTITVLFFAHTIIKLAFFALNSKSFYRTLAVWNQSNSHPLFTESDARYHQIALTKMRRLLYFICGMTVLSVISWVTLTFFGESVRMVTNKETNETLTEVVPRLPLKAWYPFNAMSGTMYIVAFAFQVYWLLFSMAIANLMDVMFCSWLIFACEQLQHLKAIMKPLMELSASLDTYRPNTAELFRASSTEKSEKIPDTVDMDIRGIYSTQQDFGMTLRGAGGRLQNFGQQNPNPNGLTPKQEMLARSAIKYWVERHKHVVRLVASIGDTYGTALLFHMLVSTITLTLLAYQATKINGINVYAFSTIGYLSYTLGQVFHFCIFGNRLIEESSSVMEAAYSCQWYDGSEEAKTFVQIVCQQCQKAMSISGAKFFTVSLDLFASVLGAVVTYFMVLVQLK
Excerpt: two-electrode voltage clamp in Xenopus oocytes, dose-response on HarmOR6 | Dose–response curve of HarmOR6/HarmOR2 Xenopus oocytes to Z9-16:Ald. | Dose–response curve of HarmOR6/HarmOR2 Xenopus oocytes to Z9-14:Ald.

HarmOR13 = biological target: T2, HarmOR13 (Helicoverpa armigera, UniProt A0A075TD52)
T2 construct: gene OR13; full-length ORF; with HarmOrco (HarmOR2)
T2 sequence (A0A075TD52 1-425): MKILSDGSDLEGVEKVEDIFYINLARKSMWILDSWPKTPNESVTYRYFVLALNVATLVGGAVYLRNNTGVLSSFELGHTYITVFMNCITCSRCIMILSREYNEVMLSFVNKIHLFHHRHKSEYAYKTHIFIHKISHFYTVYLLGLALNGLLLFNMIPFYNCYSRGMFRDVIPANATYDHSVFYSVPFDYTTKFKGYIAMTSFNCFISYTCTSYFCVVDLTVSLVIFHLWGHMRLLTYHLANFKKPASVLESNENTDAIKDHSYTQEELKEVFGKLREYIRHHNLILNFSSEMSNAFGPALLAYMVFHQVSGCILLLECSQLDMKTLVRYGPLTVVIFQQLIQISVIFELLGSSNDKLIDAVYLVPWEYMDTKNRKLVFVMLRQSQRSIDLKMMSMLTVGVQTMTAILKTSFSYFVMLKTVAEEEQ
T2 sequence (A0A075TD45 1-473 partner): T1 sequence (A0A075TD45 1-473 partner)

HarmOR16 = biological target: T3, HarmOR16 (Helicoverpa armigera, UniProt C6K7B8)
T3 construct: full-length ORF; with HarmOrco (HarmOR2)
T3 sequence (C6K7B8 1-422): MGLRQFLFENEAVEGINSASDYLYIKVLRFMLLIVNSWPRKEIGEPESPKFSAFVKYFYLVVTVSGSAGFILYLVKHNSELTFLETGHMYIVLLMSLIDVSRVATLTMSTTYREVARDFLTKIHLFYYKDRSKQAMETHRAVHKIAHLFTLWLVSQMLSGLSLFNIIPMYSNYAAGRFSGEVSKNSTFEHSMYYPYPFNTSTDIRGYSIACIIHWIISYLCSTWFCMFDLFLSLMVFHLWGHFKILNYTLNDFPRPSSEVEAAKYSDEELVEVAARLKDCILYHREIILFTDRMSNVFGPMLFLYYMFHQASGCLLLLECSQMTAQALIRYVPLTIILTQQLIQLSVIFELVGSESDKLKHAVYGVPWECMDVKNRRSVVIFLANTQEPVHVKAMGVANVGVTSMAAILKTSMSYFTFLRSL
T3 sequence (A0A075TD45 1-473 partner): T1 sequence (A0A075TD45 1-473 partner)
Excerpt: two-electrode voltage clamp in Xenopus oocytes, dose-response on HarmOR16 | Dose–response curve of HarmOR16/HarmOR2 Xenopus oocytes to Z11-16:OH.

Compound	pEC50 (HarmOR6)	also measured
CCCC/C=C\CCCCCCCC=O [Z9-14:Ald, (Z)-9-tetradecenal]	5.36	
CCCCCC/C=C\CCCCCCCC=O [Z9-16:Ald, (Z)-9-hexadecenal]	5.45	
CCCC/C=C\CCCCCCCCCC=O [Z11-16:Ald, (Z)-11-hexadecenal]		pEC50 (HarmOR13): 5.74
CCCC/C=C\CCCCCCCCCCO [Z11-16:OH, (Z)-11-hexadecen-1-ol]		pEC50 (HarmOR16): 6.52
